Assay results: PubChem BioAssay AID434975 (The Scripps Research Institute Molecular Screening Center, 2010)
Calls of active or inactive are those of the source.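 How the source made its calls: active means inhibition zone diameter above 0 mm; inactive means zone diameter of 0 mm or less.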

Each compound was assayed on Candida albicans ATCC 90028, disc diffusion zone, 24 h (assay: antifungal activity against C. albicans – disc diffusion, zone diameter, TPT1 inhibitor project, late-stage follow-up (AID 434975)). Conditions: at 10 mM; active compounds read high.

SMILES | inhibition zone diameter
COc1ccc(OC)c(N2C(=O)/C(=C/c3ccco3)C(=O)NC2=S)c1 | 0 mm (inactive)
Cc1cc(C)n(Cc2ccc(C(=O)NN=Cc3ccc(-c4ccc([N+](=O)[O-])cc4)o3)o2)n1 | 0 mm (inactive)
OC(Cn1cncn1)(Cn1cncn1)c1ccc(F)cc1F | 38 mm
O=c1oc2c(O)c(O)cc3c(=O)oc4c(O)c(O)cc1c4c23 | 0 mm (inactive)
Cc1ccc(N2C(=O)NC(=O)/C(=C\c3ccc([N+](=O)[O-])o3)C2=O)cc1 | 12.6 mm
CC1=C(C#N)C(=O)N(C2CCS(=O)(=O)C2)C(=O)/C1=C\c1ccco1 (stereo not drawn) | 0 mm (inactive)
NC(=O)c1cc[n+](CC2=C(C(=O)O)N3C(=O)[C@@H](NC(=O)C(c4ccccc4)S(=O)(=O)O)[C@H]3SC2)cc1 (stereo partly drawn) | 0 mm (inactive)
Cc1ccccc1N1C(=O)/C(=C/c2ccco2)C(=O)NC1=S | 0 mm (inactive)
